The record followed here is PubChem BioAssay (NCI).

Test systems include OVCAR-8 ovarian; HCT-116 colon; HL-60(TB) leukemia; SN12C renal; EKVX NSCLC; DU-145 prostate; SK-OV-3 ovarian; UO-31 renal; NCI-H23 lung; T-47D breast.
Common to all, as to experiment: NCI anticancer screen, dose series, 48 h

Where “and” joins values, the source holds several entries; their conditions need not be identical. Identical values can stand only once.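 Five compound concentrations were applied to cells in 96-well plates for 48 hours; endpoints were derived by simple linear interpolation of the resulting dose-response curve. GI50 is the concentration that inhibits growth by half. TGI denotes the concentration required for complete inhibition of growth.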

For the compound `Oc1ccc(Cc2cc(Cc3ccc(O)cc3)cc(Cc3ccc(O)cc3)c2)cc1`, the TGI with OVCAR-8 ovarian, in the assay on HCT-116 colon, in the assay with HL-60(TB) leukemia, with SN12C renal, in the assay with EKVX NSCLC and with DU-145 prostate was over 50 µM in each case. Also, the TGI with SK-OV-3 ovarian and in the assay with UO-31 renal was over 50 µM in each case.

For the compound `COc1ccc(CN2C(=O)/C(=C\c3cc(OC)c(OC)c(OC)c3)c3ccccc32)cc1`, the GI50 in the assay with OVCAR-8 ovarian was 3.05 µM; in the assay with HCT-116 colon, 1.61 µM; with SN12C renal, 3.04 µM; with EKVX NSCLC it was 2.99 µM; in the assay with DU-145 prostate, 2.32 µM; with NCI-H23 lung, 2.35 µM. Also, the GI50 in the assay with T-47D breast is 2.06 µM; in the assay with UO-31 renal it was 1.18 µM. The TGI with OVCAR-8 ovarian was over 100 µM; with HCT-116 colon it was 3.05 µM; in the assay on SN12C renal it was over 100 µM; with EKVX NSCLC, 55.1 µM; with DU-145 prostate it was 6.98 µM; in the assay with NCI-H23 lung it was 6.43 µM. The TGI in the assay with T-47D breast was found to be 7.31 µM; in the assay on UO-31 renal it was 2.91 µM.

`COc1ccc2cc1Oc1ccc(cc1)C[C@H]1c3cc(c(OC)cc3CCN1C)Oc1c(O)c(OC)cc3c1[C@H](C2)N(C)CC3`: the TGI with OVCAR-8 ovarian amounted to 8.43 µM; in the assay with HCT-116 colon it was 36 µM; in the assay on HL-60(TB) leukemia, 48.2 µM; with SN12C renal, 88.8 µM; in the assay on EKVX NSCLC, 8.53 µM; with NCI-H23 lung, 95.5 µM. Besides, the results for the TGI in the assay on SK-OV-3 ovarian and in the assay with UO-31 renal were 44.5 µM and 58.8 µM, respectively.

Consider `CC1CN(C)c2ccccc2N=C1NN` (centres undefined), for which the TGI in the assay on OVCAR-8 ovarian, with HCT-116 colon, in the assay on HL-60(TB) leukemia, in the assay with SN12C renal, in the assay on EKVX NSCLC and in the assay with DU-145 prostate was over 100 µM each time. Besides, the TGI with NCI-H23 lung, with SK-OV-3 ovarian and in the assay on UO-31 renal was over 100 µM each time.

For the compound `N#CC(Cc1ccccc1)N(CCC1=CCCCC1)C(c1ccccc1)c1ccccc1` (centres undefined), the TGI with OVCAR-8 ovarian, in the assay on HCT-116 colon, with EKVX NSCLC, in the assay on DU-145 prostate, in the assay with NCI-H23 lung and in the assay with SK-OV-3 ovarian was over 100 µM throughout. The TGI in the assay with T-47D breast and in the assay on UO-31 renal was over 100 µM in each case.

Turning to `O=C1C=C[C@@H](COC2OC(CO)C(O)C(O)C2O)O1` (some centres undefined), the GI50 with OVCAR-8 ovarian was 4.61 µM; in the assay on HCT-116 colon, 2.63 µM; in the assay on HL-60(TB) leukemia, 2.75 µM; in the assay with SN12C renal, 8.38 µM; in the assay on NCI-H23 lung, 5.12 µM. Further, the TGI was > 100 µM and 66.5 µM in the assay on OVCAR-8 ovarian; 10.5 µM and > 100 µM in the assay on HCT-116 colon; 15.4 µM and 5.22 µM in the assay on HL-60(TB) leukemia; 24.4 µM and 19 µM in the assay with SN12C renal; 39.1 µM in the assay with EKVX NSCLC; 19.2 µM and 29.7 µM with NCI-H23 lung. The TGI was over 100 µM in the assay with SK-OV-3 ovarian and 85 µM with UO-31 renal.

For the compound `CC1(C)O[C@H]2OC(CO[Si](C)(C)C(C)(C)C)C(N=[N+]=[N-])[C@H]2O1` (some centres undefined), the TGI with OVCAR-8 ovarian is 38.1 µM; in the assay with HCT-116 colon, 28.9 µM; in the assay on HL-60(TB) leukemia, 23.1 µM; in the assay with SN12C renal it was 36.2 µM; in the assay with EKVX NSCLC, 39.3 µM; in the assay on NCI-H23 lung, 39 µM. Also, the figures for the TGI with SK-OV-3 ovarian and in the assay with UO-31 renal were 28.3 µM and 32.3 µM, respectively.

With `O=C1c2cc3c(cc2-c2c1c1ccc(F)cc1c(=O)n2C[C@H](O)[C@@H](O)[C@H](O)CO)OCO3`, the GI50 is 0.0904 µM with OVCAR-8 ovarian; 0.308 µM in the assay on EKVX NSCLC; 0.0513 µM in the assay on DU-145 prostate; 0.046 µM in the assay with NCI-H23 lung; 0.0324 µM with SK-OV-3 ovarian; 0.0229 µM with T-47D breast. The TGI in the assay on OVCAR-8 ovarian was over 100 µM; in the assay with EKVX NSCLC, 3.05 µM; with DU-145 prostate it was 1.99 µM; in the assay on NCI-H23 lung, 0.256 µM; in the assay on SK-OV-3 ovarian, 0.22 µM; in the assay with T-47D breast, 0.15 µM.

Consider `CC(=O)N1C(C(=O)NC2CCCCC2)CSC1c1ccccc1` (centres undefined), for which the TGI with OVCAR-8 ovarian, with HCT-116 colon, in the assay with HL-60(TB) leukemia, in the assay with SN12C renal, in the assay with EKVX NSCLC and with DU-145 prostate was over 100 µM throughout. The TGI in the assay on NCI-H23 lung, in the assay with SK-OV-3 ovarian and in the assay with UO-31 renal was over 100 µM in each case.

Take `COP(=O)(OC)C1=c2c(C)noc2=C2C=COC2C1=O` (centres undefined): the TGI in the assay with OVCAR-8 ovarian, in the assay with HCT-116 colon, in the assay with HL-60(TB) leukemia, with SN12C renal, in the assay with EKVX NSCLC and in the assay on DU-145 prostate was over 100 µM in each case. Also, the TGI in the assay with NCI-H23 lung, in the assay with SK-OV-3 ovarian and in the assay with UO-31 renal was over 100 µM in each case.

Consider `Oc1ccc2c(c1)c1c(n2CCN2CCOCC2)-c2ccccc2CC1`, for which the TGI was over 100 µM in the assay with OVCAR-8 ovarian; over 100 µM in the assay with HCT-116 colon; over 100 µM in the assay on HL-60(TB) leukemia; 95.9 µM in the assay with SN12C renal; 92.5 µM with EKVX NSCLC; 82.1 µM in the assay with NCI-H23 lung. Also, the TGI in the assay with SK-OV-3 ovarian and in the assay with UO-31 renal was over 100 µM throughout.

Take `COc1cccc(C2SC(N)=Nc3c2c(C)nn3C(=O)c2ccccc2O)c1` (centres undefined): the TGI in the assay with OVCAR-8 ovarian, in the assay with HCT-116 colon, in the assay with SN12C renal, in the assay with EKVX NSCLC, with DU-145 prostate and with NCI-H23 lung was over 10 µM in each case. Also, the TGI in the assay with SK-OV-3 ovarian, in the assay with T-47D breast and in the assay with UO-31 renal was over 10 µM in each case.

As to `C#CCn1c(=O)c2ccccc2n(CC#C)c1=O`, the TGI with OVCAR-8 ovarian, in the assay on HCT-116 colon, with SN12C renal, with EKVX NSCLC, in the assay on DU-145 prostate and in the assay on NCI-H23 lung was over 10 µM each time. The TGI in the assay on SK-OV-3 ovarian, with T-47D breast and in the assay on UO-31 renal was over 10 µM throughout.

`COC(=O)[C@@H](O)[C@](O)(CCC(C)C)C(=O)O[C@@H]1C(OC)=C[C@]23CCCN2CCc2cc4c(cc2[C@H]13)OCO4`: the TGI stood at 6.51 µM in the assay on OVCAR-8 ovarian; 2.57 µM with HCT-116 colon; 2.96 µM in the assay on HL-60(TB) leukemia; 10.3 µM in the assay on SN12C renal; 6.09 µM in the assay on EKVX NSCLC; 5.7 µM with NCI-H23 lung. Also, the TGI in the assay with SK-OV-3 ovarian is 8.12 µM; with UO-31 renal it was 8.42 µM.
